Assay results: patent US20140148498A1, “METHODS AND COMPOSITIONS FOR THE TREATMENT OF MARFAN SYNDROME AND ASSOCIATED DISORDERS” (THE JOHNS HOPKINS UNIVERSITY, priority 2011, published 2014)
Entries after “also recorded” stand apart in the source; their conditions may differ.

Experiments:
[1] = test system: Fbn1^C1039G/+ mice; assay: Systolic blood pressure by tail cuff; type: in vivo; conditions: compared to placebo-treated animals, FIG. 8
Description: Mice were started on medication at 8 weeks of age and continued for 7 months. Losartan was dissolved in drinking water and filtered to reach a concentration of 0.6 g/L, giving an estimated daily dose of 40-60 mg/kg/day. Enalapril was dissolved in drinking water and filtered to reach a final concentration of 0.15 g/L, giving an estimated daily dose of 10-15 mg/kg/day. […] Spironolactone was dissolved in drinking water and filtered to give an estimated dose of 20 mg/kg/day, a dose previously shown to have in-vivo phenotypic benefit in cardiovascular disease states (S. Sakurabayashi-Kitade et al., Atherosclerosis 206, 54 (2009)). Placebo-treated animals received regular drinking water. Blood pressures were analyzed by taking 20 tail cuff blood pressures per day over 5 days in each mouse to habituate the mice to the tail cuff pressure system, and the blood pressures obtained on the last day were averaged. At least 4 mice for each treatment group were analyzed.

[2] = test system: p38; assay: Western blot of proximal ascending aorta: p38 activation (Examples 4-5); type: in vivo, mice
Source text: All mice were cared for under strict compliance with the Animal Care and Use Committee of the Johns Hopkins University School of Medicine. The Fbn1^C1039G/+ and AT2KO lines were maintained n a pure C57BL/6 background (backcrossed for greater than 9 generations), allowing for valid comparisons. In order to further accommodate the potential for temporal- or background-specified variation, all comparisons were made between contemporary littermates when possible. The AT21C0 mice were obtained as a generous gift from Dr. Inagami (T. Ichiki et al., Nature 377, 748 (1995)). The Agtr2 gene resides on the X chromosome and therefore we used either male mice carrying the mutated allele (who are hemizygous) or homozygous females, both of which have been previously shown to be functionally null for the AT2 receptor (T. Ichiki et al., Nature 377, 748 (1995)). Mice were sacrificed with an inhalation overdose of halothane (Sigma-Aldrich, St. Louis). Mice underwent immediate laparotomy, descending abdominal aortic transection, and PBS (pH 7.4) was infused through the right and left ventricles to flush out the blood. Mice that were analyzed for Western Blot analysis had their proximal ascending aortas (root to right brachiocephalic trunk) immediately dissected out, flash frozen in liquid nitrogen and stored at −80d until further processing. Mice that were analyzed for aortic histology had latex injected under low pressure into the left ventricular apex until it was visible in the descending abdominal aorta. Mice that were analyzed for lung histology had their trachea intubated with a 20-gauge blunted needle, and 0.5% agar was infused under a low and constant pressure to gradually inflate the lungs. […]
Mouse aortic root and ascending aortas (aortic root excluding the aortic valve to origin of right brachiocephalic trunk) were harvested, snap-frozen in liquid nitrogen and stored at −80° C. until processed. […] Equal protein loading of samples was determined by a protein assay (BioRad, CA), and confirmed by probing with antibodies against β-Actin or GAPDH (Sigma, Mo.). […]

## CCCCc1nc(Cl)c(CO)n1Cc1ccc(-c2ccccc2-c2nn[nH]n2)cc1 [losartan]
[1]
  Systolic blood pressure: equal reduction in systolic blood pressure
[2]; Fbn1^C1039G/+ mice, FIG. 13
  p38 activation: do not affect p38 activation; also recorded: neither had any effect
[2]; treated AT2KO:Fbn1^C1039G/+ versus treated Fbn1^C1039G/+ mice, FIG. 14
  p38 activation: no significant change; also recorded: no significant difference
